Measurements published in US4470926A, “Medicaments containing thymosin alpha 1 fragments and having an immunostimulant action, and fragments of thymosin alpha 1” (priority 1980, dated 1984).
Like-named read-outs stand apart in the source and are kept apart here. Residues, ends and D or L forms follow the SMILES beside them. No end group written: not given here.

How the values were obtained:
[1] = system: human peripheral lymphocytes; format: cell-based; settings: for Optimum concentr.: concentration of optimum E-rosette stimulation after α-amanitin block; for Relative number of the E-rosettes (%): after inhibition with α-amanitin
Text: The immunological test methods used were the E-rosette test according to Wara, Ammann et al. (N.Y. Acad. Sci. 249 (1975) 308 and N. Engl. J. Med. 292 (1975) 70) and the method of mixed lymphocyte culture, both methods involving additional inhibition of cellular RNS polymerase by alpha-amanitin. The E-rosette test is based on the fact that the percentage of E-rosette forming cells in peripheral human blood is a measure of the content of fully mature T-cells, which form with sheep's red blood cells characteristic aggregates which can be counted under the microscope.
For the performance of the E-rosette test, peripheral human lymphocytes are isolated by a gradient centrifugation. Their RNS polymerase is blocked by alpha-amanitin. […] This value is taken as 100% in a relative numerical scale, and after the alpha-amanitin blockage it is taken to be 0%; see Table XII.

[2] = system: human peripheral lymphocytes; format: cell-based; settings: for stimulation (+) / inhibition (-) (%) of the mixed lymphocyte culture: 1 μg fragment per ml; for (%) Stimulation of allogenic mixed culture: 1 microgram thymosin α1 per ml
Experimental: The test in mixed lymphocyte cultures is based on the fact that T-cells are made to proliferate by stimulation with allogenic antigens. For the performance of the test, the lymphocytes of donor A ("responder") are incubated with those of donor B ("stimulator") for 4 to 5 days. Then ^3 H-thymidin is added and the rate of proliferation is measured on the basis of the increasing radioactivity of the cell culture due to the installation of the radioactive material. Since both populations A and B might be made to proliferate, resulting in an unclear effect, population B is blocked with mitomycin C in all metabolical activities. This test is routinely used before organ transplants to determine the immunological compatibility of donor and receiver tissues.

[3] = after α-amanitin block (=0%), normal level without any addition = 100%, at optimum concentration
[4] = cell pair AB, culture blocked with 1 μg α-amanitin per ml
[5] = cell pair AB, not blocked with amanitin, culture without addition = 0%
[6] = cell pair BA, culture blocked with 1 μg α-amanitin per ml
[7] = cell pair CD, culture blocked with 1 μg α-amanitin per ml
[8] = cell pair CD, not blocked with amanitin, culture without addition = 0%
[9] = cell pair DC, culture blocked with 1 μg α-amanitin per ml
[10] = cell pair DC, not blocked with amanitin, culture without addition = 0%
[11] = cell pair BA, not blocked with amanitin, culture without addition = 0%

Molecule | E-rosette number (%) [1, 3] | Optimum concentr. [1] | stimulation (+) / inhibition (-) (%) of the mixed lymphocyte culture [2, 4] | stimulation (+) / inhibition (-) (%) of the mixed lymphocyte culture [2, 5] | stimulation (+) / inhibition (-) (%) of the mixed lymphocyte culture [2, 6] | stimulation (+) / inhibition (-) (%) of the mixed lymphocyte culture [2, 7] | stimulation (+) / inhibition (-) (%) of the mixed lymphocyte culture [2, 8] | stimulation (+) / inhibition (-) (%) of the mixed lymphocyte culture [2, 9] | activity in the E-rosette test (in words) [1] | action in the mixed lymphocyte culture (in words) [2] | stimulation (+) / inhibition (-) (%) of the mixed lymphocyte culture [2, 10] | also measured
KEVVEEAEN [VI] | 16% | 10 µM | +279% | +153% | -96% | +83% | +57% | +160% | – | – | – | –
C[C@H](NC(=O)[C@@H](N)CCC(=O)O)C(=O)N[C@@H](CCC(=O)O)C(=O)N[C@@H](CC(N)=O)C(=O)O [V] (H-EAEN-OH) | 42% | 113 µM | -47% | +223% | -94% | – | +45% | – | activity in the E-rosette test only at a relatively high dosage | very considerable stimulation of T-cell proliferation | +37% | –
Synthetic thymosin α1: parent substance, totally synthetic thymosin α1, 28 amino acids, analytically pure (SDAAVDTSSEITTKDLKEKKEVVEEAEN; ends and bridges not checked; UniProt P06454 2-29, looked up) [reference compound] | 100% | 1.6 µM | – | – | – | – | – | – | – | – | – | Relative number of the E-rosettes (%) ([1]; 0.25 μg per culture): 39%; Relative number of the E-rosettes (%) ([1]; 0.50 μg per culture): 100%; Relative number of the E-rosettes (%) ([1]; 1.00 μg per culture): 64%; Relative number of the E-rosettes (%) ([1]; 2.50 μg per culture): 57%; Relative number of the E-rosettes (%) ([1]; 5.00 μg per culture): 33%; (%) Stimulation of allogenic mixed culture ([2]; cell pair AB, (a) culture not inhibited, without addition = 0%): +20%; (%) Stimulation of allogenic mixed culture ([2]; cell pair AB, (b) culture inhibited with 1 microgram amanitin per ml): +86%; (%) Stimulation of allogenic mixed culture ([2]; cell pair AD, (a) culture not inhibited): +4%; (%) Stimulation of allogenic mixed culture ([2]; cell pair AD, (b) culture inhibited with 1 microgram amanitin per ml): +37%; (%) Stimulation of allogenic mixed culture ([2]; cell pair BA, (a) culture not inhibited): +27%; (%) Stimulation of allogenic mixed culture ([2]; cell pair BA, (b) culture inhibited with 1 microgram amanitin per ml): +47%; (%) Stimulation of allogenic mixed culture ([2]; cell pair BD, (a) culture not inhibited): +45%; (%) Stimulation of allogenic mixed culture ([2]; cell pair BD, (b) culture inhibited with 1 microgram amanitin per ml): +51%; (%) Stimulation of allogenic mixed culture ([2]; cell pair DA, (a) culture not inhibited): +44%; (%) Stimulation of allogenic mixed culture ([2]; cell pair DB, (a) culture not inhibited): +27%; (%) Stimulation of allogenic mixed culture ([2]; cell pair DB, (b) culture inhibited with 1 microgram amanitin per ml): +1550%
TSSEIT [II] | 29% | 80 µM | -11% | – | -80% | -98% | -53% | +20% | – | – | +30% | stimulation (+) / inhibition (-) (%) of the mixed lymphocyte culture [2, 11]: -18%
KEVVE [IV] | 45% | 83 µM | -87% | -53% | -97% | +35% | +37% | +100% | activity in the E-rosette test only at a relatively high dosage | very considerable stimulation of T-cell proliferation | +2% | –
KDAAVD [Ia] | 93% | 16 µM | -10% | -8% | – | -53% | -73% | -7% | especially active | surprisingly pronounced inhibiting action | -31% | stimulation (+) / inhibition (-) (%) of the mixed lymphocyte culture [2, 11]: -15%
TKDLKEKKEVVEEAEN [VII] | – | 6 µM | – | – | – | – | – | – | more strongly stimulated | – | – | E-rosette number (%) [1]: 41%
Ac-SDAAVDTSSEIT [IX] | 40% | 4 µM | -30% | -74% | -78% | +63% | -63% | +60% | more strongly stimulated | surprisingly pronounced inhibiting action | -77% | –
